{"source": "paper PMC12648656", "about": "“Palladium(II) Complexes with Noncovalent Interactions with DNA: Solution Speciation Controlled by Solvent Identity, pH, and Concentration” (Inorganic Chemistry, 2025)", "key": {"[1]": {"test_system": "calf thymus-DNA (CT-DNA)", "test": "UV-vis titration with CT-DNA", "type": "binding", "conditions": "complex/DNA ratio 0 to 0.79; 5 mM Tris, 50 mM NaCl, pH 7.40, 25 °C", "protocol": "To investigate the potential binding ability of the palladium complexes (2) and (3) with DNA, UV–vis titrations (240 to 700 nm) were performed at room temperature. During the titrations, the CT-DNA concentration (5.08 × 10^–5 M) was kept constant, while the concentration of each complex (0 to 2.00 × 10^–5 M) was varied. The changes in the typical absorbance of CT-DNA at 260 nm were monitored after equilibration (10 min) and after 1 h of incubation at 37 °C. […] Control experiments with DMSO were performed, and no changes in the CT-DNA spectrum were observed."}, "[2]": {"test_system": "Staphylococcus aureus (272123)", "test": "Antibacterial MIC, broth dilution", "type": "cell-based", "conditions": "S. aureus, 18 h, 37 °C", "protocol": "(§1) Antibacterial activity was determined for the title compounds in various Gram-negative and Gram-positive bacterial strains, namely Klebsiella pneumoniae, Escherichia coli (ATCC 25922), Staphylococcus aureus (272123), methicillin-resistant Staphylococcus aureus (ATCC 43300), and Enterococcus faecalis (ATCC 29212). The stock solutions of the tested compounds were prepared in DMSO at a 5 mM concentration. […] All stock solutions were diluted in 100 μL of Mueller Hinton Broth, and then two-fold serial dilutions were performed. Then, a 10^–4 dilution of an overnight bacterial culture in 100 μL of medium was added to each well, except for the medium control wells. The highest concentration of the compounds in the tested samples was 100 μM. The plates were incubated at 37 °C for 18 h. After that, the MIC values were determined by visual inspection."}, "[3]": {"test_system": "Klebsiella pneumoniae", "test": "Antibacterial MIC, broth dilution", "type": "cell-based", "conditions": "K. pneumoniae, 18 h, 37 °C", "protocol": "as §1"}, "[4]": {"test_system": "Enterococcus faecalis (ATCC 29212)", "test": "Antibacterial MIC, broth dilution", "type": "cell-based", "conditions": "E. faecalis, 18 h, 37 °C", "protocol": "as §1"}, "[5]": {"test_system": "Escherichia coli (ATCC 25922)", "test": "Antibacterial MIC, broth dilution", "type": "cell-based", "conditions": "E. coli, 18 h, 37 °C", "protocol": "as §1"}, "[6]": {"test": "Stability in physiological buffers (Tris, phosphate, HEPES) by UV-vis", "type": "physicochemical", "protocol": "The reaction of the metal complexes (2) and (3) with buffer components was followed in an array of DMSO percentages, from 1% to 60% (v/v) DMSO/H2O (pH 7.4) medium. The samples were prepared by dilution of the stock solution of the respective complex in DMSO (5 mM) with 5 mM Tris 1% (v/v) DMSO/H2O or 5 mM phosphate buffers 60% (v/v) DMSO/H2O (pH 7.40 in both cases), reaching a final concentration of 10^–6 to 10^–4 M. The UV–vis spectra of the final samples were followed over time at 37 °C for up to 24 h."}, "[7]": {"test": "n-Octanol/water and n-octanol/Tris buffer shake-flask partitioning", "type": "physicochemical", "protocol": "The distribution coefficient values (D 7.4) of the compounds were determined by the traditional shake-flask method in n-octanol/buffered aqueous solution at pH 7.40 for 5 mM Tris HCl with 0.1 M KCl and at pH 7.4 at 25.0 ± 0.2 °C. The ligand and complexes were dissolved in n-octanol (presaturated by the aqueous buffer) because of the very low aqueous solubility. The aqueous buffer solution and n-octanol ratio was 1:1 due to the expected high lipophilicity of the compounds. First, samples were mixed with vertical rotation (∼20 rpm) for 3 h, and then the two phases were separated by centrifugation at 3000 rpm (∼1000g) for 3 min. After separation, UV–vis spectra of the compounds were recorded in both phases. Spectra of the n-octanol phases were compared to those of the original n-octanol stock solutions.\nThe distribution coefficient values were also determined using unbuffered water and octanol (also presaturated) with a ratio of 1:1."}, "[8]": {"test_system": "Colo 205 human colon cancer cell line", "test": "In vitro cytotoxicity, MTT", "type": "cell-based", "conditions": "Colo 205, 72 h exposure", "protocol": "(§2) Cell culture reagents were obtained from Merck, and plasticware was obtained from Sarstedt. Human colon adenocarcinoma cell line Colo 205 (ATCC CCL-222) and MCF7 (ATCC HTB-22) breast cancer cells were purchased from LGC Promochem. Cancer cells were cultured in RPMI 1640 medium supplemented with 10% heat-inactivated fetal bovine serum, 2 mM L-glutamine, and 1 mM sodium pyruvate and buffered with 100 mM HEPES. The cells were incubated at 37 °C in a 5% CO2, 95% air atmosphere and were detached with Trypsin-Versene (EDTA) solution for 5 min at 37 °C.\n(§3) The tested ligands were dissolved in DMSO, and the stock solutions (5 mM) were diluted in complete culture medium. Two-fold serial dilutions of compounds were made in 100 μL of the medium, horizontally. The semiadherent colon adenocarcinoma cells were treated with Trypsin-Versene (EDTA) solution. They were adjusted to a density of 1 × 10^4 cells in 100 μL of RPMI 1640 medium and were added to each well, with the exception of the medium control wells. The final volume of the wells containing compounds and cells was 200 μL. The plates containing the cells were incubated at 37 °C for 72 h; at the end of the incubation period, 20 μL of MTT solution (5 mg/mL) was added to each well. After incubation at 37 °C for 4 h, 100 μL of sodium dodecyl sulfate solution (10% in 0.01 M HCl) was added to each well, and the plates were further incubated at 37 °C overnight. Cell growth was determined by measuring the optical density (OD) at 540 and 630 nm with a Multiskan EX plate reader (Thermo Labsystems).\n(§4) Curves for the data obtained on cancer cells were fitted by GraphPad Prism software using the sigmoidal dose–response model (comparing variable and fixed slopes). The IC50 values were always obtained from at least three independent experiments."}, "[9]": {"test_system": "MCF7 human breast cancer cell line", "test": "In vitro cytotoxicity, MTT", "type": "cell-based", "conditions": "MCF7, 72 h exposure", "protocol": "as §2, §3, §4"}, "[10]": {"test_system": "methicillin-resistant Staphylococcus aureus (ATCC 43300)", "test": "microbe, parasite or virus in culture", "type": "cell-based", "conditions": "S. aureus (MRSA), 18 h, 37 °C", "protocol": "as §1"}, "[11]": {"test": "HPLC analysis of aqueous solution integrity", "type": "physicochemical", "conditions": "20 μM in 3% DMSO aqueous solution, after 24 h, 254 nm", "protocol": "Prior to the injection to the column, 20 μL was taken and diluted with 180 μL of HPLC-grade acetonitrile at various time points (t = 0 and 24 h). 20 μL of this diluted sample was injected in the Zorbax Eclipse Plus C18 column (4.6 × 100 mm, 3.5 μm): flow rate, 1 mL/min; detection, UV 254 nm; flow solvent system A/B (acetonitrile/water, v/v): 70:30 and analyzed with 254 nm radiation up to 10 min."}}, "data": [{"smiles": "Clc1ccc(N=C2N[N+](=Cc3c[nH]cn3)[Pd-2]3([S]C(Nc4ccc(Cl)cc4)=N[N+]3=Cc3c[nH]cn3)[S]2)cc1", "note": "(stereo not shown) [(2), Bis(1H-imidazole-4-carboxaldehyde-4N-p-chlorophenylthiosemicarbazonato)palladium(II)]", "values": [{"measurement": "change of CT-DNA absorption at 260 nm", "setting": "[1]", "value": "absorption values of DNA–complex samples increase"}, {"measurement": "MIC", "setting": "[2]", "value": "> 100", "unit": "µM"}, {"measurement": "MIC", "setting": "[3]", "value": "> 100", "unit": "µM"}, {"measurement": "MIC", "setting": "[4]", "value": "> 100", "unit": "µM"}, {"measurement": "MIC", "setting": "[5]", "value": "> 100", "unit": "µM"}, {"measurement": "behaviour in HEPES buffer", "setting": "[6]; HEPES, pH 7.4, 0.1 M chloride, 60% DMSO", "value": "formed precipitation"}, {"measurement": "time stable in solution, no precipitation", "setting": "[6]; Tris buffer containing 3% (v/v) DMSO, pH 7.4, 20.0 μM", "value": "up to 24 h"}, {"measurement": "stability after 24 h", "setting": "[6]; Tris buffer, 60% DMSO", "value": "decreased the stability"}, {"measurement": "behaviour in phosphate buffer", "setting": "[6]; pH 7.4, 0.1 M chloride, 3% (v/v) DMSO", "value": "precipitated"}, {"measurement": "behaviour in phosphate buffer", "setting": "[6]; pH 7.4, 0.1 M chloride, 60% (v/v) DMSO, first 10 h", "value": "major structural changes"}, {"measurement": "log D o/t", "setting": "[7]; n-octanol/5 mM Tris HCl with 0.1 M KCl, pH 7.40, 25.0 °C", "value": "+2.32 ± 0.16"}, {"measurement": "log D o/w", "setting": "[7]; n-octanol/pure (unbuffered) water, 1:1", "value": "+1.70 ± 0.06"}, {"measurement": "IC50", "setting": "[8]", "value": "11.8 ± 0.35", "unit": "µM"}, {"measurement": "IC50", "setting": "[9]", "value": "1.55 ± 0.03", "unit": "µM"}, {"measurement": "MIC", "setting": "[10]", "value": "> 100", "unit": "µM"}, {"measurement": "integral of the HPLC signal of intact complex", "setting": "[11]", "value": "only slightly diminished"}]}]}
